This note sets out measurements from publication PMC3268671 (Cell, 2012).

The term Kd denotes a measure of binding affinity in units of concentration. Higher therefore signals weaker binding.

The target of this assay is PfHRPII HT-GFP (HT/RLLYE-GFP). The format is binding, Plasmodium falciparum.

PI(3)P: the Kd is more than 5 µM.
